Where a SMILES comes first, the peptide text is derived from it. Bridges are numbered along the chain shown (N, C = ends). [ ]: non-standard residue; d: D form. The star is where a group is joined. Ileψ(thiazoline)Cys = CC[C@H](C)[C@H](N)C1=N[C@H](C(=O)*)CS1; dOrn = NCCC[C@@H](N)C(=O)O
Assays:
[1] = test system: bone marrow-derived mast cells (BMMCs); assay: cytokine production from IgE/antigen-activated bone marrow-derived mast cells (ELISA); format: cell-based, BALB/c mice; settings: for activation of mast cells: DNP-IgE priming, DNP-BSA challenge; for production of mast cell cytokines such as TNF-a, IL-6, and IL-13: DNP-IgE/DNP-BSA
Method: In this study, bone marrow-derived mast cells (BMMCs) were treated with the known PDI inhibitors bacitracin and rutin, and mast cell activation was assessed. BMMCs were generated from BALB/c mice and grown in 10 ng/ml IL-3 and 10 ng/ml stem cell factor (SCF) for 4-8 weeks. One million BMMCs in triplicates were cultured with various concentrations of the PDI inhibitors Bacitracin (Bac) and Rutin (RH) for 1 day or 7 days. Some cells were activated by priming cells with DNP-IgE (Dinitrophenyl IgE) antibodies and challenging with DNP-BSA (dinitrophenyl-bovine serum albumin). Cytokine levels (IL-4, IL-13, TNF-alpha, and IL-6 in FIGS. 1A-1D, respectively) were assessed in the supernatants 24 hr later by ELISA. FIG. 1A-1D show treatment of mast cells with PDI inhibitor Bacitracin or Rutin inhibits the activation of mast cells and the production of mast cell cytokines such as TNF-a, IL-6, and IL-13. In this study, BMMCs were treated with the known PDI inhibitor PACMA-31, and mast cell activation was assessed. Bone marrow derived mast cells (BMMCs) were generated from BALB/c mice and grown in 10 ng/ml IL-3 and 10 ng/ml SCF for 4-8 weeks. 1 million BMMCs in triplicates were cultured with 30 μM PACMA-31 (Sigma-Aldrich) for 30 minutes. Some cells were activated by priming cells with DNP-IgE antibodies and challenging with DNP-BSA. Cytokine levels (IL-13, TNF-alpha, and IL-6 in FIGS. 2A-2C) were assessed in the supernatants 6 hrs later by ELISA. FIG. 2A-2C show treatment of mast cells with the specific PDI inhibitor PACMA-31 inhibits the activation of mast cells and the production of mast cell cytokines such as TNF-a, IL-6, and IL-13.

[2] = test system: ovalbumin-induced food allergy; assay: mouse model of ovalbumin-induced, mast cell-mediated food allergy; format: in vivo, BALB/c mice
Method: In this study, wild-type (Wt) mice were sensitized and challenged with ovalbumin and treated with PACMA-31 to determine whether PDI inhibition can modulate the development of food allergy. BALB/c mice were sensitized intraperitoneally (i.p.) with 50 μg ovalbumin (OVA) and 1 mg alum on day zero (d0) and d14. On day 28, some groups of mice were challenged intragastrically with 50 mg OVA once a day on 6 alternating days. Some groups of mice were treated with 300 μg PACMA-31 (P-31) intragastrically daily starting d27. […] The development of allergic diarrhea in this model is dependent on mast cell activation. […] In FIGS. 3A-3F, Wt Cont=wild-type, Control; Wt OVA=wild-type, ovalbumin; Wt+P31 Cont=wild-type, PACMA-31, Control; and Wt+P31 OVA=wild-type, PACMA-31, ovalbumin. FIG. 3A-3F show oral treatment of mice undergoing food allergy with PACMA-31 results in attenuation of the allergic response including mast cell protease levels which indicate mast cell activation (mMCP-1), OVA-IgE levels, and Th2 cytokine levels.

[3] = known property; cited from earlier work
[4] = wild-type mice, ovalbumin-induced food allergy

Row | Structure (SMILES) | activation of mast cells ([1]; BMMCs cultured with various concentrations for 1 day or 7 days, FIGS. 1A-1D) | production of mast cell cytokines such as TNF-a, IL-6, and IL-13 ([1]; BMMCs cultured with various concentrations for 1 day or 7 days, supernatants 24 hr later by ELISA, FIGS. 1A-1D) | mast cell protease levels which indicate mast cell activation (serum mMCP-1) ([2]; 300 μg intragastrically daily from d27, OVA-sensitized and challenged mice, FIG. 3A) | serum OVA-IgE levels ([2]; 300 μg intragastrically daily from d27, OVA-sensitized and challenged mice, FIG. 3B) | Th2 cytokine levels in supernatants of spleen cells restimulated with OVA ([2]; 300 μg intragastrically daily from d27, OVA-sensitized and challenged mice, FIGS. 3C-3F) | allergen-specific IgE [2, 4] | development of food allergy symptoms [2, 4] | mast cell activation [2, 4] | allergic diarrhea ([2]; wild-type mice, ovalbumin-induced food allergy, observed one hour after 6th challenge) | oral bioavailability [3] | activation of mast cells ([1]; BMMCs cultured with 30 μM for 30 minutes, FIGS. 2A-2C) | production of mast cell cytokines such as TNF-a, IL-6, and IL-13 ([1]; BMMCs cultured with 30 μM for 30 minutes, supernatants 6 hrs later by ELISA, FIGS. 2A-2C)
1 | CC[C@H](C)[C@H](N)C1=N[C@H](C(=O)N[C@@H](CC(C)C)C(=O)N[C@H](CCC(=O)O)C(=O)N[C@H](C(=O)N[C@H]2CCCCNC(=O)[C@H](CC(N)=O)NC(=O)[C@@H](CC(=O)O)NC(=O)[C@H](Cc3cnc[nH]3)NC(=O)[C@@H](Cc3ccccc3)NC(=O)[C@H]([C@@H](C)CC)NC(=O)[C@@H](CCCN)NC2=O)[C@@H](C)CC)CS1 [Bacitracin, bacitracin] ({Ileψ(thiazoline)Cys}-L[dE]IK[dOrn]I[dF]H[dD]N; lactam 4-C) | inhibits | inhibits | – | – | – | – | – | – | – | – | – | –
2 | C#CC(=O)N(c1ccc(OC)cc1OC)C(C(=O)NCC(=O)OCC)c1cccs1 (stereo not drawn) [PACMA-31, N-(2,4-dimethoxyphenyl)-N-(1-oxo-2-propyn-1-yl)-2-(2-thienyl)glycylglycine ethyl ester] | – | – | attenuation | attenuation | attenuation | decreases | significant attenuation | decreases | decreases | orally bioavailable | inhibits | inhibits

Source: patent US11883459B2, “Thiol isomerases inhibitors for the treatment and prevention of food allergies, allergic diseases, and inflammatory diseases” (WESTERN NEW ENGLAND UNIVERSITY, priority 2018, dated 2024)
